# Measurements from the NIST ThermoML archive (doi:10.1021/je060253t).
# Several values for one entry are separate records, joined by “and”; a condition that tells them apart may be missing. Equal entries are not always repeated. Numbers after ± are expanded uncertainties.
# Conditions: 313.15 K; Liquid; Closed cell (Static) method
row,vapor or sublimation pressure,Compound
1,59.92 ± 0.21 kPa and 59.91 ± 0.21 kPa,COC(C)(C)C [2-methoxy-2-methylpropane]
2,37.3 ± 0.14 kPa and 37.25 ± 0.14 kPa,CCCCCC [hexane]

row,Compound,vapor or sublimation pressure
1,CCCO [propan-1-ol],6.999 ± 0.038 kPa and 7.007 ± 0.038 kPa and 7 ± 0.038 kPa
